# Laboratory results taken from PMC8741257, “Identification of novel non-toxic and anti-angiogenic α-fluorinated chalcones as potent colchicine binding site inhibitors” (Journal of Enzyme Inhibition and Medicinal Chemistry, 2022).
# Like-named read-outs stand apart in the source and are kept apart here.
# Legend:
# [1] = tested on: A549 (human non-small cell lung cancer); test: Antiproliferative activity (SRB assay); type: cell-based; conditions: mean ± SD, three separated experiments, 72 h
# Method: (§1) MCF-7, MGC-803, Hela and HepG-2 cell lines were cultured in a base medium (90% DMEM and 10% FBS), A549 and U937 were cultured in a base medium (90% PRMI-1640 and 10% FBS) at 37 °C, 5% CO2 and a saturated humidity atmosphere. All the mediums were supplemented with 10% FBS and 1% […]/streptomycin (all cells were purchased from Shanghai Institutes for Biological Sciences, Chinese Academy of Sciences, Shanghai, China).
# (§2) A549, MGC-803, MCF-7, HepG2 and Hela cells were seeded at the appropriate cell line density (3 × 10^3 to 4 × 10^3 cells/well). The cells were then incubated at 37 °C for 24 h in a humidified 5%CO2 in 96-well plates prior to experiments. After a further 72 h of incubation, cell proliferation was quantified with SRB ([…]) to determine the number of surviving cells. The absorbance at 560 nm was measured by microplate. The experiment was repeated three times, and the data were listed in the form of mean and standard deviation.
# [2] = tested on: Hela (human cervical cancer cells); test: Antiproliferative activity (SRB assay); type: cell-based; conditions: mean ± SD, three separated experiments, 72 h
# Method: as §1, §2
# [3] = tested on: HepG2 (human liver cancer cells); test: Antiproliferative activity (SRB assay); type: cell-based; conditions: mean ± SD, three separated experiments, 72 h
# Method: as §1, §2
# [4] = tested on: MCF-7 (human breast cancer cells); test: Antiproliferative activity (SRB assay); type: cell-based; conditions: MCF7, mean ± SD, three separated experiments, 72 h
# Method: as §1, §2
# [5] = tested on: U937 (human leukaemia cells); test: Antiproliferative activity (CCK-8 assay); type: cell-based; conditions: U-937, mean ± SD, three separated experiments, 72 h
# Method: as §1
# (§3) MGC-803 cells were collected and seeded into 96 well plates at a density of 8000/well. The mediums containing drugs and cell suspension were added into the well. The cells were incubated in 5% CO2 incubator at 37 °C for 72 h. Each well was added 10 µL CCK8 solution, and the incubation time was 3–4 h. The absorbance value at 450 nm was measured by microplate reader. Data are calculated with GraphPad Prism5 software.
# [6] = tested on: MGC-803 (human gastric cancer cells); test: Antiproliferative activity (SRB / CCK-8 assay); type: cell-based; conditions: mean ± SD
# Method: as §1, §2, §3
# [7] = tested on: six human cancer cell lines (MCF-7, MGC-803, HepG2, Hela, A549, U937); test: Antiproliferative activity, summary over the tested cancer cell lines; type: cell-based
# Method: as §2, §3
# [8] = tested on: 293 T (human embryonic kidney cell); test: Growth inhibition of normal human cells; type: cell-based; conditions: HEK-293T, triplicate, mean ± SD
# Method: (§4) The effect of compound 4c on three types of normal human cell lines including LO2 (human hepatocyte cells), 293 T (human embryonic kidney cell) and THP-1-derived macrophages was then determined.
# [9] = tested on: LO2 (human hepatocyte cells); test: Growth inhibition of normal human cells; type: cell-based; conditions: triplicate, mean ± SD
# Method: as §4
# [10] = tested on: THP-1-derived macrophages; test: Growth inhibition of normal human cells; type: cell-based; conditions: Macrophage, triplicate, mean ± SD
# Method: as §4
# [11] = three separated experiments, 72 h
# [12] = tested cancer cell lines, read-out: IC50, anti-proliferative activity
Compound,IC50 [1] [nM],IC50 [2] [nM],IC50 [3] [nM],IC50 [4] [nM],IC50 [5] [nM],melting point [°C],"IC50 [6, 11] [nM]","IC50 [7, 12] [nM]","IC50 ([7]; several tested cancer cell lines, range, read-out: IC50, inhibitory effect) [nM]","IC50 ([6]; Table 2, triplicate) [nM]",IC50 [8] [nM],IC50 [9] [nM],IC50 [10] [nM]
"COc1cc(C(=O)/C(F)=C/c2coc3ccccc23)cc(OC)c1OC [4t, (Z)-3-(benzofuran-3-yl)-2-fluoro-1–(3,4,5-trimethoxyphenyl)prop-2-en-1-one]",1020 ± 64,203 ± 6,1063 ± 8,1293 ± 7,125 ± 2,103.7 to 104.8,–,–,–,–,–,–,–
"COC(=O)c1ccc2c(/C=C(\F)C(=O)c3cc(OC)c(OC)c(OC)c3)c[nH]c2c1 [4a, Methyl(Z)-3–(2-fluoro-3-oxo-3–(3,4,5-trimethoxyphenyl)prop-1-en-1-yl)-1H-indole-6-carboxylate]",> 5000,> 5000,> 5000,> 5000,> 5000,207.3 to 209.1,> 5000,> 5000,–,–,–,–,–
"COc1cc(C(=O)/C(F)=C/c2c(C)[nH]c3ccccc23)cc(OC)c1OC [4e, (Z)-2-fluoro-3–(2-methyl-1H-indol-3-yl)-1–(3,4,5-trimethoxyphenyl)prop-2-en-1-one]",> 5000,101 ± 31,1385 ± 1,551 ± 14,123 ± 11,204 to 206.4,72 ± 2,–,–,–,–,–,–
"COc1cc(C(=O)/C(F)=C/c2c(-c3ccccc3)[nH]c3ccccc23)cc(OC)c1OC [4b, (Z)-2-fluoro-3–(2-phenyl-1H-indol-3-yl)-1–(3,4,5-trimethoxyphenyl)prop-2-en-1-one]",3635 ± 1,685 ± 2,883 ± 41,551 ± 22,562 ± 20,150.7 to 152.4,202 ± 23,–,–,–,–,–,–
"COC(=O)c1cccc2[nH]cc(/C=C(\F)C(=O)c3cc(OC)c(OC)c(OC)c3)c12 [4f, Methyl(Z)-3–(2-fluoro-3-oxo-3–(3,4,5-trimethoxyphenyl)prop-1-en-1-yl)-1H-indole-4-carboxylate]",> 5000,> 5000,> 5000,> 5000,> 5000,118 to 119,> 5000,> 5000,–,–,–,–,–
"COC(=O)c1ccc2[nH]cc(/C=C(\F)C(=O)c3cc(OC)c(OC)c(OC)c3)c2c1 [4d, Methyl(Z)-3–(2-fluoro-3-oxo-3–(3,4,5-trimethoxyphenyl)prop-1-en-1-yl)-1H-indole-5-carboxylate]",> 5000,> 5000,> 5000,> 5000,> 5000,80.4 to 81.8,> 5000,> 5000,–,–,–,–,–
"COc1ccc(/C=C\c2cc(OC)c(OC)c(OC)c2)cc1O [CA-4, Combretastatin A4, reference compound]",5 ± 1,8 ± 1,7 ± 1,–,0.3,–,2 ± 1,–,–,2 ± 1,12 ± 2,5 ± 1,7 ± 1
"COc1cc(C(=O)/C(F)=C/c2csc3ccccc23)cc(OC)c1OC [4g, (Z)-3-(benzo[b]thiophen-3-yl)-2-fluoro-1–(3,4,5-trimethoxyphenyl)prop-2-en-1-one]",505 ± 10,72 ± 1,199 ± 6,121 ± 12,456 ± 13,118 to 119,21 ± 7,–,–,–,–,–,–
"COc1cc(C(=O)/C(F)=C/c2cc3ccccc3s2)cc(OC)c1OC [4h, (Z)-3-(benzo[b]thiophen-2-yl)-2-fluoro-1–(3,4,5-trimethoxyphenyl)prop-2-en-1-one]",2570 ± 159,2493 ± 2,5976 ± 4,2101 ± 3,606 ± 26,122.2 to 123.6,1897 ± 1,–,–,–,–,–,–

# Continued, in another order:
IC50 [1] [nM],IC50 [2] [nM],IC50 [3] [nM],IC50 [4] [nM],IC50 [5] [nM],melting point [°C],"IC50 [6, 11] [nM]","IC50 [7, 12] [nM]","IC50 ([7]; several tested cancer cell lines, range, read-out: IC50, inhibitory effect) [nM]",Compound,"IC50 ([6]; Table 2, triplicate) [nM]",IC50 [8] [nM],IC50 [9] [nM],IC50 [10] [nM]
> 5000,> 5000,> 5000,> 5000,> 5000,142.6 to 143.8,> 5000,–,–,"COc1cc(C(=O)/C(F)=C/c2ccc3sc4ccccc4c3c2)cc(OC)c1OC [4s, (Z)-3-(dibenzo[b, d]thiophen-2-yl)-2-fluoro-1–(3,4,5-trimethoxyphenyl)prop-2-en-1-one]",–,–,–,–
> 5000,> 5000,> 5000,> 5000,> 5000,140.5 to 143.4,> 5000,–,–,"COc1cc(C(=O)/C(F)=C/c2sc3ccccc3c2C)cc(OC)c1OC [4i, (Z)-2-fluoro-3–(3-methylbenzo[b]thiophen-2-yl)-1–(3,4,5-trimethoxyphenyl)prop-2-en-1-one]",–,–,–,–
> 5000,565 ± 12,3298 ± 7,441 ± 1,806 ± 24,148.1 to 149.1,166 ± 4,–,–,"COc1cc(C(=O)/C(F)=C/c2cccc3c2OCO3)cc(OC)c1OC [4k, (Z)-3-(benzo[d][1,3]dioxol-4-yl)-2-fluoro-1–(3,4,5-trimethoxyphenyl)prop-2-en-1-one]",–,–,–,–
> 5000,925 ± 7,1407 ± 14,1002 ± 7,710 ± 27,94.1 to 94.2,362 ± 123,–,–,"COc1cc(C(=O)/C(F)=C/c2ccc3occc3c2)cc(OC)c1OC [4m, (Z)-3-(benzofuran-5-yl)-2-fluoro-1–(3,4,5-trimethoxyphenyl)prop-2-en-1-one]",–,–,–,–
> 5000,> 5000,> 5000,> 5000,> 5000,174.7 to 176.6,> 5000,–,–,"COc1cc(C(=O)/C(F)=C/c2cc3c(cc2[N+](=O)[O-])OCO3)cc(OC)c1OC [4r, (Z)-2-fluoro-3–(6-nitrobenzo[d][1,3]dioxol-5-yl)-1–(3,4,5-trimethoxyphenyl)prop-2-en-1-one]",–,–,–,–
> 5000,> 5000,> 5000,> 5000,> 5000,117.4 to 118.8,> 5000,–,–,"COc1cc(C(=O)/C(F)=C/c2oc3ccccc3c2C)cc(OC)c1OC [4p, (Z)-2-fluoro-3–(3-methylbenzofuran-2-yl)-1–(3,4,5-trimethoxyphenyl)prop-2-en-1-one]",–,–,–,–
> 5000,> 5000,> 5000,> 5000,> 5000,114 to 116.4,> 5000,–,–,"COc1cc(C(=O)/C(F)=C/c2ccc3oc4ccccc4c3c2)cc(OC)c1OC [4q, (Z)-3-(dibenzo[b,d]furan-2-yl)-2-fluoro-1–(3,4,5-trimethoxyphenyl)prop-2-en-1-one]",–,–,–,–
> 5000,> 5000,> 5000,> 5000,> 5000,156.3 to 157.8,> 5000,–,–,"COc1cc(C(=O)/C(F)=C/c2cc3c(cc2Br)OCO3)cc(OC)c1OC [4l, (Z)-3–(6-bromobenzo[d][1,3]dioxol-5-yl)-2-fluoro-1–(3,4,5-trimethoxyphenyl)prop-2-en-1-one]",–,–,–,–
> 5000,> 5000,> 5000,4408 ± 43,> 5000,115.5 to 116.6,3301 ± 26,–,–,"COc1cc(C(=O)/C(F)=C/c2cc3ccccc3o2)cc(OC)c1OC [4o, (Z)-3-(benzofuran-2-yl)-2-fluoro-1–(3,4,5-trimethoxyphenyl)prop-2-en-1-one]",–,–,–,–
364 ± 3,42 ± 1,116 ± 1,128 ± 4,31 ± 1,100.8 to 103.7,43 ± 1,–,31 to 364,"COc1cc(C(=O)/C(F)=C/c2ccc3c(c2)CCO3)cc(OC)c1OC [4n, (Z)-3–(2,3-dihydrobenzofuran-5-yl)-2-fluoro-1–(3,4,5-trimethoxyphenyl)prop-2-en-1-one]",–,–,–,–
> 5000,> 5000,> 5000,> 5000,> 5000,178.9 to 180.9,> 5000,–,–,"COc1cc(C(=O)/C(F)=C/c2nc3ccccc3[nH]2)cc(OC)c1OC [4j, (Z)-3-(1H-benzo[d]imidazol-2-yl)-2-fluoro-1–(3,4,5-trimethoxyphenyl)prop-2-en-1-one]",–,–,–,–
